Patent US8058242B2, “Chimeric proteins with natriuretic activity” (The University of Queensland, priority 2004, dated 2011)
Where “and” joins values, the source holds several entries; their conditions need not be identical. Equal values may be shown once. Positions of bridges follow the written chain, without caps; N, C: chain ends. Residues, ends and D or L forms follow the SMILES beside them.

Columns and labels:
[1] = test system: endothelium-intact aortic rings (NPR-C mediated); assay: Aortic ring relaxation, endothelium-intact rings pre-contracted with 40 mM KCl (Example 3); design: species or system rat; details: endothelium-intact rat aortas pre-contracted with 40 mM KCl; peptide 0.1 μM
Procedure: (§1) Male Sprague Dawley rats were killed and the descending thoracic aorta rapidly removed and flushed with physiological solution. After being cleared of adhering fat and connective tissue, 5 mm rings were mounted under 10 g resting tension, between two stainless steel hooks, in organ baths (37° C.) containing carbogenated (95% O2 and 5% CO2) physiological salt solution of the following composition (mM): NaCl, 118.4; NaHCO3, 25; glucose, 11; KCl, 4.7; MgSO4, 1.2; KH2PO4, 1.2 and CaCl2, 2.5. The lower hook was attached to a tissue holder and the upper hook to a force displacement transducer (Grass FTO3). Where indicated endothelial cells were removed by gentle rubbing of the intimal surface with a wire. To confirm the presence or absence of endothelial cells, tissues were precontracted with a sub-maximal concentration of phenylephrine (0.3 μM) and the response to acetylcholine (ACh, 10 μM) observed. Ach-induced relaxation greater than 80% of maximum indicated the presence of endothelium; whereas Ach-induced relaxation less than 10% indicated the absence of endothelium. Ring preparations under resting tension were conditioned by two contraction/relaxation cycles with 40 mM KCl, contracted by a third application of 40 mM KCl and then relaxed with different doses of the venom peptides. Responses were expressed as a percentage relaxation of the precontraction by KCl.

[2] = test system: endothelium-denuded aortic rings (GC-A mediated); assay: Aortic ring relaxation, endothelium-denuded rings pre-contracted with 40 mM KCl (Example 3); design: species or system rat; details: endothelium-denuded rat aortas pre-contracted with 40 mM KCl; peptide 0.1 μM
Procedure: as §1

Plasmin = target: T1, Plasmin (Homo sapiens, UniProt P00747); assay: Stability to enzymatic degradation by plasmin (Examples 7, 16); assay type: in vitro ADME; details: plasmin, 37° C.; for half-life at 125 μM: plasmin in Tris/HCl-NaCl buffer, read-out: HalfLife in plasmin
T1 construct: with 500 ng Endopeptidase (NEP) or 10 μg Plasmin
Procedure: The incubation buffer contained 100 mM Tris/HCl and 150 mM NaCl and the pH was adjusted to 7.2-7.4. In each assay, 100 μl of peptide [500 μM] was incubated with 300 μl buffer (with 500 ng Endopeptidase (NEP) or 10 μg Plasmin) at 37° C. 50 μl aliquots were taken at times 5 min, 30 min, 60 min, 90 min, 180 min and 24 h. The reaction was quenched by heating to 100° C. for 4 min and the remaining peptide concentrations measured by RP-HPLC. Note that the levels of Plasmin required to degrade these peptides was several thousands time the levels present in human plasma.
The stability of TDT and was investigated using the same enzymatic degradation assays (NEP, plasmin, pepsin) disclosed in Example 7. […] It is also evident that the increased NEP stability cannot be explained by the length of the tail region alone as the NEP cleavage site residues at the N-terminal end of the loop region.

[3] = target: T2, Natriuretic Peptide Receptor-A (NPR-A) signaling in MDCK cells (Canis lupus familiaris, UniProt A0A8I3MHU3); assay type: cell-based, canine; details: stimulation of cGMP accumulation in MDCK cells; for EC50: read-out: EC50 (M) ± Standard Error
T2 sequence (A0A8I3MHU3 32-1060): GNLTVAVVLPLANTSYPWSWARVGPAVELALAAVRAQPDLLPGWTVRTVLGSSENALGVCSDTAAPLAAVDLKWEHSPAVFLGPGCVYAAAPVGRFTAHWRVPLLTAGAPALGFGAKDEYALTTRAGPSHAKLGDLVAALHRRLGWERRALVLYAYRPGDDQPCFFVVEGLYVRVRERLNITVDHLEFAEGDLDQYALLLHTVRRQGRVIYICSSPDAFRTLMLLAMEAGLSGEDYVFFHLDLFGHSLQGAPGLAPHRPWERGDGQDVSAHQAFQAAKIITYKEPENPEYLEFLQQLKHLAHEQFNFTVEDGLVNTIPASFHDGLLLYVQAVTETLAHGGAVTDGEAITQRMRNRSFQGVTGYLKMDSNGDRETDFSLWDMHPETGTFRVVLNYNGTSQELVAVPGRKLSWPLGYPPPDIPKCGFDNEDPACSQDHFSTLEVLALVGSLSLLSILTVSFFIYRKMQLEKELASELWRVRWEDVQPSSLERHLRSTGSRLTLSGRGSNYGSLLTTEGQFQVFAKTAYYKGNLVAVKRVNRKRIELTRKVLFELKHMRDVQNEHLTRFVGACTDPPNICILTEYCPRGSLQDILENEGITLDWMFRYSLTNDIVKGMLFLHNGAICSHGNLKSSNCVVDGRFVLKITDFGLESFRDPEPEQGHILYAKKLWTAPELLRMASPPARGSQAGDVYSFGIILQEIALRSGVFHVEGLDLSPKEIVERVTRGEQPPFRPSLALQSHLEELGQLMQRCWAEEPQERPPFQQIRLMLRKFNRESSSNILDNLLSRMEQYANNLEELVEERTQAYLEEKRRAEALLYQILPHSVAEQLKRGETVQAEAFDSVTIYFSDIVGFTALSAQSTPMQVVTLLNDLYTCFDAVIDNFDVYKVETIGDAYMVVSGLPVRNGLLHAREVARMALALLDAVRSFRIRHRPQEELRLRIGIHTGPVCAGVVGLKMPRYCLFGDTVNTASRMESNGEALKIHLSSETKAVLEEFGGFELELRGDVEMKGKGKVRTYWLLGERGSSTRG

conscious rabbits = assay: Blood pressure and heart rate in conscious rabbits, intravenous infusion dose-response (Example 8); design: Systolic BP, mean difference / Diastolic BP, mean difference / Mean BP, mean difference / HR, mean difference: dose or concentration left out as unconfirmed; details: for Diastolic BP, mean difference from control / HR, mean difference from control / Mean BP, mean difference from control / Systolic BP, mean difference from control: 45 min
[4] = Table 9B, average of doses 1, 2, 4
[5] = after 1 hour recovery period, Table 10A
[6] = average of the 3 doses 1.0, 2.0, 4.0 μg/kg/min

T1 sequence (P00747 97-580 partner limits assumed, species assumed): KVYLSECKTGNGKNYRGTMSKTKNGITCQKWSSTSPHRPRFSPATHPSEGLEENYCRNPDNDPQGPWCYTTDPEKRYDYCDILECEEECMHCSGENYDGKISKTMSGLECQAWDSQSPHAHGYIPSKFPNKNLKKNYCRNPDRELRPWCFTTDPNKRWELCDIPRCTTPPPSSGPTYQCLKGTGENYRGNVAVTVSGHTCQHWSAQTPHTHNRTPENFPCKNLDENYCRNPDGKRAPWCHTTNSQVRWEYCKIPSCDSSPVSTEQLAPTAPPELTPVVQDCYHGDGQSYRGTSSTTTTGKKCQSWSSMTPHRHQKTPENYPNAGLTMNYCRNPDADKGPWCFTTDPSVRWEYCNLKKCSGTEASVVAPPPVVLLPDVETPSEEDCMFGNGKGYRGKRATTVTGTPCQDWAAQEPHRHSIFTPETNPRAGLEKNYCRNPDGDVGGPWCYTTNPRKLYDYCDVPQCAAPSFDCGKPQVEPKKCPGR
T1 sequence (P00747 581-810 limits assumed, species assumed): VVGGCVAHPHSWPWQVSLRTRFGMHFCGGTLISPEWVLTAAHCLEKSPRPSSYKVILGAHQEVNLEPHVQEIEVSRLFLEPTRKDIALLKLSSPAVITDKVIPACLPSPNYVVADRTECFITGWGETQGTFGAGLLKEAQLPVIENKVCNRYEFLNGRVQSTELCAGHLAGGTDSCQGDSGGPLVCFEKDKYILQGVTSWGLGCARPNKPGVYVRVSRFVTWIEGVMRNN

CC[C@H](C)[C@@H]1NC(=O)[C@H](CCCNC(=N)N)NC(=O)[C@H](CC(=O)O)NC(=O)[C@H](CCSC)NC(=O)[C@H](CCCNC(=N)N)NC(=O)CNC(=O)CNC(=O)[C@H](Cc2ccccc2)NC(=O)[C@@H](NC(=O)[C@H](CO)NC(=O)[C@H](CO)NC(=O)[C@H](CCCNC(=N)N)NC(=O)[C@H](CCCNC(=N)N)NC(=O)[C@H](CC(C)C)NC(=O)[C@@H](N)CO)CSSC[C@@H](C(=O)N[C@@H](CC(N)=O)C(=O)N[C@@H](CO)C(=O)N[C@@H](Cc2ccccc2)C(=O)N[C@@H](CCCNC(=N)N)C(=O)N[C@@H](Cc2ccc(O)cc2)C(=O)O)NC(=O)CNC(=O)[C@H](CC(C)C)NC(=O)CNC(=O)[C@H](CO)NC(=O)[C@H](CCC(N)=O)NC(=O)[C@H](C)NC(=O)CNC1=O [hANP, reference compound]
percentage relaxation of the precontraction by KCl [1]: ~100%
percentage relaxation of the precontraction by KCl [2]: ~100%
half-life at 125 μM (Plasmin): 2.03 min
K (one phase exponential decay, best fit values) (Plasmin): 0.3413
PLATEAU (one phase exponential decay, best fit values) (Plasmin): 0.04207
SPAN (one phase exponential decay, best fit values) (Plasmin): 0.9579
−Log10 EC50 (pEC50) ± Standard Error [3]: 8.792 ± 0.2718
EC50 [3]: 1.64e-08 M
Diastolic BP, mean difference (conscious rabbits; Table 9B, Dose 1): −9.7 mmHg
HR, mean difference (conscious rabbits; Table 9B, Dose 1): 17 bpm
Mean BP, mean difference (conscious rabbits; Table 9B, Dose 1): −13.1 mmHg
Systolic BP, mean difference (conscious rabbits; Table 9B, Dose 1): −10.6 mmHg
Diastolic BP, mean difference (conscious rabbits; Table 9B, Dose 2): −12.3 mmHg
HR, mean difference (conscious rabbits; Table 9B, Dose 2): 19 bpm
Mean BP, mean difference (conscious rabbits; Table 9B, Dose 2): −15.7 mmHg
Systolic BP, mean difference (conscious rabbits; Table 9B, Dose 2): −13.0 mmHg
Diastolic BP, mean difference (conscious rabbits; Table 9B, Dose 4): −14.4 mmHg
HR, mean difference (conscious rabbits; Table 9B, Dose 4): 9 bpm
Mean BP, mean difference (conscious rabbits; Table 9B, Dose 4): −18.5 mmHg
Systolic BP, mean difference (conscious rabbits; Table 9B, Dose 4): −14.5 mmHg
Diastolic BP, Average Response SED (conscious rabbits; [4]): −12.1 ± 0.8 mmHg
HR, Average Response SED (conscious rabbits; [4]): 15 ± 3 bpm
Systolic BP, Average Response SED (conscious rabbits; [4]): −12.7 ± 0.9 mmHg
Recovery (MAP) (conscious rabbits; [5]): 59.2 mm Hg
Recovery Delta SED (MAP) (conscious rabbits; after 1 hour recovery period, Table 10A, listed as WT-hANP): 5.0±1.2 mm Hg
Diastolic BP, Average Response SED (conscious rabbits; [6]): −12.1 ± 0.8 mmHg
HR, Average Response SED (conscious rabbits; [6]): 15.1 ± 3.2 bpm
Systolic BP, Average Response SED (conscious rabbits; [6]): −12.7 ± 0.9 mmHg
MAP at final dose (conscious rabbits; highest dose, Table 10A): 54.2 mm Hg
Treatment Effect, change of mean blood pressure during the infusion (conscious rabbits; highest dose, Table 10A, groups 1, 2A and 3): −18.5 mm Hg
Diastolic BP, mean difference from control (conscious rabbits; i.v. infusion 1.0 μg/kg/min): −9.7 mmHg
HR, mean difference from control (conscious rabbits; i.v. infusion 1.0 μg/kg/min): 17.1 bpm
Mean BP, mean difference from control (conscious rabbits; i.v. infusion 1.0 μg/kg/min): −13.1 mmHg
Systolic BP, mean difference from control (conscious rabbits; i.v. infusion 1.0 μg/kg/min): −10.6 mmHg
Diastolic BP, mean difference from control (conscious rabbits; i.v. infusion 2.0 μg/kg/min): −12.3 mmHg
HR, mean difference from control (conscious rabbits; i.v. infusion 2.0 μg/kg/min): 19.0 bpm
Mean BP, mean difference from control (conscious rabbits; i.v. infusion 2.0 μg/kg/min): −15.7 mmHg
Systolic BP, mean difference from control (conscious rabbits; i.v. infusion 2.0 μg/kg/min): −13.0 mmHg
Diastolic BP, mean difference from control (conscious rabbits; i.v. infusion 4.0 μg/kg/min): −14.4 mmHg
HR, mean difference from control (conscious rabbits; i.v. infusion 4.0 μg/kg/min): 9.0 bpm
Mean BP, mean difference from control (conscious rabbits; i.v. infusion 4.0 μg/kg/min): −18.5 mmHg
Systolic BP, mean difference from control (conscious rabbits; i.v. infusion 4.0 μg/kg/min): −14.5 mmHg

CC[C@H](C)[C@H](NC(=O)[C@H](CCCCN)NC(=O)[C@H](CO)NC(=O)[C@H](CC(=O)O)NC(=O)[C@@H](N)CO)C(=O)NCC(=O)N[C@@H](CC(N)=O)C(=O)NCC(=O)N[C@H]1CSSC[C@@H](C(=O)N[C@@H](CC(N)=O)C(=O)N[C@@H](CCCNC(=N)N)C(=O)N[C@H](C(=O)N[C@@H](CCSC)C(=O)N[C@@H](CCC(N)=O)C(=O)N[C@@H](CC(N)=O)C(=O)N2CCC[C@H]2C(=O)N2CCC[C@H]2C(=O)N[C@@H](CCCCN)C(=O)N[C@@H](CCCCN)C(=O)N[C@@H](Cc2ccccc2)C(=O)N[C@@H](CO)C(=O)NCC(=O)N[C@@H](CCC(=O)O)C(=O)O)[C@@H](C)CC)NC(=O)CNC(=O)[C@H](CC(C)C)NC(=O)CNC(=O)[C@H](CO)NC(=O)[C@H](C(C)C)NC(=O)[C@H](CO)NC(=O)CNC(=O)[C@H]([C@@H](C)CC)NC(=O)[C@H](CCCNC(=N)N)NC(=O)[C@H](CC(=O)O)NC(=O)[C@H](CC(C)C)NC(=O)[C@@H]2CCCN2C(=O)[C@H](Cc2ccccc2)NC(=O)CNC(=O)[C@H](Cc2ccccc2)NC1=O [TNPc] (H-SDSKIGNGCFGFPLDRIGSVSGLGCNRIMQNPPKKFSGE-OH; disulfide 9-25)
percentage relaxation of the precontraction by KCl [1]: ~100%
percentage relaxation of the precontraction by KCl [2]: ~100%
half-life at 125 μM (Plasmin): 23.6 min
K (one phase exponential decay, best fit values) (Plasmin): 0.02935
PLATEAU (one phase exponential decay, best fit values) (Plasmin): 0.1128
SPAN (one phase exponential decay, best fit values) (Plasmin): 0.8454
−Log10 EC50 (pEC50) ± Standard Error [3]: 6.928 ± 0.1122
EC50 [3]: 1.84e-07 M
recovery of MAP, in words (conscious rabbits; 2 hours after infusion): remained suppressed for 2 hours
MAP at final dose (conscious rabbits; Table 10B): 58.9 mm Hg and 61.3 mm Hg
Recovery (MAP) (conscious rabbits; [5]): 56.6 mm Hg and 58.8 mm Hg
Recovery (MAP) (conscious rabbits; after a 2 hour recovery period, Table 10B): 58.8 mm Hg and 66.1 mm Hg
Diastolic BP, Average Response SED (conscious rabbits; [6]): −12.5 ± 0.6 mmHg
HR, Average Response SED (conscious rabbits; [6]): 4.7 ± 3.8 bpm
Mean BP (MAP), Average Response SED (conscious rabbits; [6]): −14.9±0.7 mmHg
Systolic BP, Average Response SED (conscious rabbits; [6]): −13.2 ± 0.8 mmHg
effective half life compared to BNP (conscious rabbits; bolus injection): 3 fold
time taken to recover to 50% of the peak response (conscious rabbits; bolus injection of 0.24 mg/kg TNPc or equivalent molar dose of BNP): 225 min
MAP at final dose (conscious rabbits; highest dose, Table 10A): 56.1 mm Hg and 58.9 mm Hg
Diastolic BP, mean difference from control (conscious rabbits; i.v. infusion 1.0 μg/kg/min): −10.0 mmHg
HR, mean difference from control (conscious rabbits; i.v. infusion 1.0 μg/kg/min): −3.5 bpm
Mean BP, mean difference from control (conscious rabbits; i.v. infusion 1.0 μg/kg/min): −11.0 mmHg
Systolic BP, mean difference from control (conscious rabbits; i.v. infusion 1.0 μg/kg/min): −9.1 mmHg
Diastolic BP, mean difference from control (conscious rabbits; i.v. infusion 2.0 μg/kg/min): −14.7 mmHg
HR, mean difference from control (conscious rabbits; i.v. infusion 2.0 μg/kg/min): 3.7 bpm
Mean BP, mean difference from control (conscious rabbits; i.v. infusion 2.0 μg/kg/min): −17.7 mmHg
Systolic BP, mean difference from control (conscious rabbits; i.v. infusion 2.0 μg/kg/min): −15.6 mmHg
Diastolic BP, mean difference from control (conscious rabbits; i.v. infusion 4.0 μg/kg/min): −12.8 mmHg
HR, mean difference from control (conscious rabbits; i.v. infusion 4.0 μg/kg/min): 13.8 bpm
Mean BP, mean difference from control (conscious rabbits; i.v. infusion 4.0 μg/kg/min): −15.9 mmHg
Systolic BP, mean difference from control (conscious rabbits; i.v. infusion 4.0 μg/kg/min): −14.9 mmHg
recovery of MAP from the hypotension, in words (conscious rabbits; one hour after the end of infusion): MAP had not changed
